Test results: US20260226077A1, “TYPE II TOPOISOMERASE INHIBITORS AND METHODS OF MAKING AND USING THEREOF” (Ohio State Innovation Foundation, priority 2023, published 2026)
In brackets after ≈: the same amount, converted by molar mass. Marks after values point to notes of the source that are not given here.

Tests used:
[1] = tested on: CACO-2; assay: Permeability: CACO-2 A->B; assay type: in vitro ADME
[2] = physchem; conditions: pH 7.4, aqueous buffer, kinetic from dmso stock, Kinetic solubility at pH 7.4-7.5 (μM)
[3] = tested on: D83N; assay: MIC against D83N mutant; assay type: cell-based
[4] = in vivo; conditions: mouse
[5] = tested on: Staphylococcus aureus; assay: MIC50/90 against Staphylococcus aureus isolates; assay type: cell-based; conditions: n = 30 (147), n = 100 (284, 319, gepotidacin)
[6] = tested on: FQ-R MRSA; assay: MIC against FQ-R MRSA isolates; assay type: cell-based, Staphylococcus aureus; conditions: n = 15 (147), n = 25 (284, 319, gepotidacin); for MIC90: Staphylococcus aureus, MRSA
[7] = tested on: Streptococcus pyogenes; assay: MIC50/90 against Streptococcus pyogenes; assay type: cell-based; conditions: for MIC50: n = 5 (147), n = 10 (others); for MIC90: n = 10
[8] = tested on: TopoIV/gyrase; assay: TopoIV/gyrase inhibition ratio; assay type: biochemical
[9] = Human microsomal stability; assay type: in vitro ADME; conditions: microsomes, read-out: Human microsom. t1/2
[10] = tested on: Bacillus anthracis; assay: microbe, parasite or virus in culture; assay type: cell-based; conditions: for MIC50: read-out: Bacillus anthracis MIC50 (μg/mL); for MIC90: read-out: Bacillus anthracis MIC90 (μg/mL)
[11] = tested on: K562; assay: K562 cytotoxicity; assay type: cell-based; conditions: Homo sapiens
[12] = target: hERG (Homo sapiens, UniProt Q12809); assay: hERG inhibition; assay type: cell-based
[13] = Mouse pharmacokinetics; conditions: 284: as free base in immunocompetent mice, 147: no footnote
[14] = tested on: Acinetobacter baumannii 19606; assay: MIC against Acinetobacter baumannii 19606; assay type: cell-based
[15] = tested on: Streptococcus agalactiae; assay: MIC50/90 against Streptococcus agalactiae; assay type: cell-based; conditions: Streptococcus agalactiae; for MIC50: n = 5 (147), n = 10 (others); for MIC90: n = 10
[16] = target: 5-HT2b (Homo sapiens, UniProt P41595); assay: Safety44 screen at 100 μM: 5-HT2b
[17] = tested on: Pseudomonas aeruginosa 27853; assay: MIC against Pseudomonas aeruginosa 27853; assay type: cell-based
[18] = Mouse microsomal stability; assay type: in vitro ADME; conditions: microsomes, read-out: Mouse microsom. t1/2
[19] = tested on: Streptococcus pneumoniae; assay: MIC50/90 against Streptococcus pneumoniae; assay type: cell-based; conditions: for MIC50: n = 5 (147), n = 10 (others); for MIC90: n = 10
[20] = not given; remark: listed apart in the source
[21] = tested on: Escherichia coli 25922; assay: MIC against Escherichia coli 25922; assay type: cell-based; conditions: Escherichia coli, 25922
[22] = tested on: Enterococcus spp.; assay: MIC50/90 against Enterococcus spp.; assay type: cell-based; conditions: n = 10 (147), n = 20 (others)
[23] = tested on: CYP 1A, 2B6, 2C8, 2C9, 2C19, 2D6, 3A; assay: CYP inhibition at 10 μM; assay type: in vitro ADME
[24] = tested on: Neisseria gonorrhoeae; assay: MIC50/90 against Neisseria gonorrhoeae; assay type: cell-based; conditions: Neisseria gonorrhoeae; n = 17 (284, gepotidacin); n = 110 (147)
[25] = tested on: S. aureus ATCC 29213; assay type: cell-based; conditions: Using S. aureus ATCC 29213
[26] = all channels
[27] = Permeability: CACO-2 A->B; assay type: in vitro ADME; conditions: human, Caco-2
[28] = tested on: S. aureus CF isolate; assay: MIC against S. aureus CF isolate; assay type: cell-based; conditions: Staphylococcus aureus
[29] = Permeability: MDCK II A->B; assay type: in vitro ADME; conditions: dog
[30] = in vitro; conditions: rat, plasma
[31] = tested on: S. aureus 29213; assay: MIC against S. aureus 29213; assay type: cell-based; conditions: Staphylococcus aureus
[32] = tested on: M121K; assay: MIC against M121K mutant; assay type: cell-based
[33] = in vitro; conditions: human, plasma
[34] = tested on: Pseudomonas aeruginosa; assay: MIC50 against Pseudomonas aeruginosa isolates; assay type: cell-based; conditions: n = 8
[35] = tested on: S. aureus USA300; assay: MIC against S. aureus USA300; assay type: cell-based; conditions: Staphylococcus aureus
[36] = Dog microsomal stability; assay type: in vitro ADME; conditions: microsomes, read-out: Dog microsom. t1/2
[37] = Monkey microsomal stability; assay type: in vitro ADME; conditions: microsomes, read-out: Monkey microsom. t1/2
[38] = in vitro; conditions: mouse, plasma
[39] = Rat microsomal stability; assay type: in vitro ADME; conditions: microsomes, read-out: Rat microsom. t1/2
[40] = tested on: Escherichia coli; assay: MIC50 against Escherichia coli isolates; assay type: cell-based; conditions: n = 8
[41] = tested on: Yersinia pestis; assay: microbe, parasite or virus in culture; assay type: cell-based
[42] = tested on: Haemophilus influenzae; assay: MIC50/90 against Haemophilus influenzae; assay type: cell-based; conditions: n = 10
[43] = tested on: Mycobacterium avium; assay: MIC50 against Mycobacterium avium; assay type: cell-based; conditions: n = 4
[44] = tested on: Moraxella catarrhalis; assay: MIC50/90 against Moraxella catarrhalis; assay type: cell-based; conditions: n = 10
[45] = tested on: Francisella tularensis; assay: microbe, parasite or virus in culture; assay type: cell-based
[46] = tested on: Mycobacterium chimaera intracellulare group; assay: MIC50 against Mycobacterium chimaera intracellulare group; assay type: cell-based; conditions: n = 6
[47] = tested on: Mycobacterium abscessus; assay: MIC50/90 against Mycobacterium abscessus; assay type: cell-based; conditions: Mycobacteroides abscessus; n = 10
[48] = tested on: Burkholderia mallei; assay: microbe, parasite or virus in culture; assay type: cell-based; conditions: Burkholderia mallei
[49] = tested on: Burkholderia pseudomallei; assay: microbe, parasite or virus in culture; assay type: cell-based
[50] = tested on: Staphylococcus epidermidis; assay: MIC50/90 against Staphylococcus epidermidis; assay type: cell-based; conditions: n = 10
[51] = in vivo; cited from earlier work

Sequence of hERG (Q12809 whole entry): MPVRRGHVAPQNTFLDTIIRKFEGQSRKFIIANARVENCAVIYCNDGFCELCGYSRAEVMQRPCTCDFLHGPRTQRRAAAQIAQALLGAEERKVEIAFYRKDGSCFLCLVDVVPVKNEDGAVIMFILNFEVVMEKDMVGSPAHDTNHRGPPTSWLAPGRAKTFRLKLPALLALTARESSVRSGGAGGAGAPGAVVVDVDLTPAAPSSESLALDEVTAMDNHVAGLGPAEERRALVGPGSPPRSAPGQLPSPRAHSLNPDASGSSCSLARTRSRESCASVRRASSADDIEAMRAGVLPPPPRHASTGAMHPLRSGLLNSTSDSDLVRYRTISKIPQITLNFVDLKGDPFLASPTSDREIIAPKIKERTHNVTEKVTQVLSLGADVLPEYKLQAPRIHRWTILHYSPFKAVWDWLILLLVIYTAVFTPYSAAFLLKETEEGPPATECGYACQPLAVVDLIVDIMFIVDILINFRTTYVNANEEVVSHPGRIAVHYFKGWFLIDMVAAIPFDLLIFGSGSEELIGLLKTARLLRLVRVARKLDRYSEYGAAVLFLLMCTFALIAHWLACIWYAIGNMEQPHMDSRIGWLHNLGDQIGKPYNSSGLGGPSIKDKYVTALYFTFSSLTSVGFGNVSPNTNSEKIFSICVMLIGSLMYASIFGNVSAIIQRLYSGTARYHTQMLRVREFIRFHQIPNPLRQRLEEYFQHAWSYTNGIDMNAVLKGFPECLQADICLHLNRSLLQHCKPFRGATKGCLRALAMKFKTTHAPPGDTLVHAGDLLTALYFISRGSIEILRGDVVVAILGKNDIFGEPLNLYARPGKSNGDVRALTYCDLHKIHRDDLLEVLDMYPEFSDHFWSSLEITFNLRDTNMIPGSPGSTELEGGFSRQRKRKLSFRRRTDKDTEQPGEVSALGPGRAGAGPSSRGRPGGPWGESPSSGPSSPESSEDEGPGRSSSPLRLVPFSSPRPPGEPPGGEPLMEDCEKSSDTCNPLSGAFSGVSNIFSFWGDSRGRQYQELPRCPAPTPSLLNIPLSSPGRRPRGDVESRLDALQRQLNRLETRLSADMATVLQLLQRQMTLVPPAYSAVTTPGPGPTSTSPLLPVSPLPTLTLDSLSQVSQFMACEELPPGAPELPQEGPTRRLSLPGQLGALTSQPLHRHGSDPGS
Sequence of 5-HT2b (P41595 whole entry): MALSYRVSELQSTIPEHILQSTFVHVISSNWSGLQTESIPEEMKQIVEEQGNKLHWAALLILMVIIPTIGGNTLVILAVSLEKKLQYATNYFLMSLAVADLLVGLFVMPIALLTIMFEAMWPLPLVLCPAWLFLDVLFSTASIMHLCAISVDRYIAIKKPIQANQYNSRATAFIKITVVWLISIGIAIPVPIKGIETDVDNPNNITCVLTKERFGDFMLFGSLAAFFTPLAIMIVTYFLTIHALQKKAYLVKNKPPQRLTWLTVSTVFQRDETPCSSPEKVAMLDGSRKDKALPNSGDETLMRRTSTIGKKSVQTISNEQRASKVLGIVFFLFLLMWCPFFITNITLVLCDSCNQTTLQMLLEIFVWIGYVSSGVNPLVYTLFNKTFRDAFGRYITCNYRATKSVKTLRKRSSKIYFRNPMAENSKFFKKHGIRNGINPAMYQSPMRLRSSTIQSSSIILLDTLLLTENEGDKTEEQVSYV

Compound: COc1ccc2ncc(F)c(C[C@H](O)[C@H]3OC[C@H](NCc4cc5c(nn4)OCCS5)CO3)c2n1 [Compound 147, reference compound]
- Mouse plasma protein binding (% unbound): 12 % unbound
- Permeability: CACO-2 A−>B (×10^−6 cm/s) [1]: 5.68 ×10^−6 cm/s
- solubility kinetic [2]: 69.6 µM (≈ 34.1 µg/mL)
- MIC [3]: 4 to 8 µg/mL (≈ 8.17 to 16.3 µM)
- Vd ([4]; Mouse Vdss (L)): 1 L
- bioavailability ([4]; po, Mouse PK Oral bioavailability (%)): 49%
- MIC50 [5]: 0.12 µg/mL (≈ 0.245 µM)
- MIC90 [5]: 0.25 µg/mL (≈ 0.511 µM)
- MIC90 [6]: 0.25 µg/mL (≈ 0.511 µM)
- MIC50 [7]: 0.5 µg/mL (≈ 1.02 µM)
- TopoIV/gyrase ratio [8]: 16
- half-life [9]: 94 min
- MIC50 [10]: 2 µg/mL (≈ 4.09 µM)
- MIC90 [10]: 8 µg/mL (≈ 16.3 µM)
- IC50 [11]: 153 µM
- IC50 [12]: 103 µM
- Mouse PK AUClast, unbound (μg*h/mL) after 50 mg/kg oral dose ([13]; 50 mg/kg oral): 0.9 µg·h/mL
- Mouse Clunbound [13]: 575 mL/min/kg
- MIC [14]: 64 µg/mL (≈ 131 µM)
- MIC50 [15]: 4 µg/mL (≈ 8.17 µM)
- Safety44 screen at 100 μM: 5-HT2b [16]: 5-HT2b (72%)
- MIC [17]: > 64 µg/mL
- half-life [18]: 18 to 26 min
- MIC50 [19]: 0.5 µg/mL (≈ 1.02 µM)
- Human plasma protein binding (% unbound) [20]: 15 % unbound
- MIC [21]: > 64 µg/mL
- MIC50 [22]: 0.25 µg/mL (≈ 0.511 µM)
- MIC90 [22]: 1 µg/mL (≈ 2.04 µM)
- CYP inhibition at 10 μM (1A, 2B6, 2C8, 2C9, 2C19, 2D6, 3A) [23]: No issues
- MIC50 [24]: > 4 µg/mL
- MIC90 [24]: > 4 µg/mL
- Resistance freq. (at 8X MIC) [25]: 2.02 × 10^−9*

Compound: O=C1COc2ncc(CN[C@H]3CO[C@H](CC4Cn5c(=O)ccc6ccc(F)c4c65)OC3)nc2N1 (stereo partly drawn) [Compound 319, 6-(((2-((9-fluoro-4-oxo-1,2-dihydro-4H-pyrrolo[3,2,1-ij]quinolin-1-yl)methyl)-trans-1,3-dioxan-5-yl)amino)methyl)-2H-pyrazino[2,3-b][1,4]oxazin-3(4H)-one]
- Mouse plasma protein binding (% unbound): 27 % unbound
- Comprehensive in vitro proarrhythmia assay at 100 μM, inhibition [26]: All <25%
- Papp A→B [27]: 0.8 ×10⁻⁶ cm/s
- solubility kinetic [2]: 25 µM (≈ 11.7 µg/mL)
- MIC [28]: 0.25 µg/mL (≈ 0.535 µM)
- MIC [3]: 4 µg/mL (≈ 8.56 µM)
- Papp A→B [29]: 1.96 ×10⁻⁶ cm/s
- MIC50 [5]: 0.5 µg/mL (≈ 1.07 µM)
- MIC90 [5]: 1 µg/mL (≈ 2.14 µM)
- MIC90 [6]: 0.5 µg/mL (≈ 1.07 µM)
- FQ-R MRSA MIC90 (μg/mL) [6]: 0.5/0.5 μg/mL
- MIC50 [7]: 2 µg/mL (≈ 4.28 µM)
- MIC90 [7]: 8 µg/mL (≈ 17.1 µM)
- half-life [30]: > 240 min
- TopoIV/gyrase ratio [8]: 0.65
- MIC [31]: 0.5 µg/mL (≈ 1.07 µM)
- MIC [32]: 4 µg/mL (≈ 8.56 µM)
- half-life [9]: > 120 min
- IC50 [11]: 135 µM
- half-life [33]: 131 min
- MIC [14]: 16 µg/mL (≈ 34.2 µM)
- MIC50 [15]: 16 µg/mL (≈ 34.2 µM)
- MIC90 [15]: 32 µg/mL (≈ 68.5 µM)
- MIC50 [34]: 16 µg/mL (≈ 34.2 µM)
- MIC [35]: 0.5 µg/mL (≈ 1.07 µM)
- MIC [17]: 64 µg/mL (≈ 137 µM)
- half-life [18]: 347 min
- half-life [36]: > 120 min
- half-life [37]: > 120 min
- MIC50 [19]: 1 µg/mL (≈ 2.14 µM)
- MIC90 [19]: 2 µg/mL (≈ 4.28 µM)
- Human plasma protein binding (% unbound) [20]: 23 % unbound
- MIC [21]: 16 µg/mL (≈ 34.2 µM)
- half-life [38]: > 240 min
- MIC50 [22]: 4 µg/mL (≈ 8.56 µM)
- MIC90 [22]: 8 µg/mL (≈ 17.1 µM)
- half-life [39]: > 120 min
- MIC50 [40]: 16 µg/mL (≈ 34.2 µM)

Compound: O=c1ccc2ncc(=O)n3c2n1C[C@H]3CN1CCC(NCc2cc3c(cn2)OCCC3)CC1 [gepotidacin, reference compound]
- MIC50 ([41]; read-out: Yersinia pestis MIC50 (μg/mL)): 0.12 µg/mL (≈ 0.268 µM)
- MIC90 ([41]; read-out: Yersinia pestis MIC90 (μg/mL)): 0.5 µg/mL (≈ 1.11 µM)
- MIC50 [42]: 1 µg/mL (≈ 2.23 µM)
- MIC90 [42]: 2 µg/mL (≈ 4.46 µM)
- MIC50 [43]: 32 µg/mL (≈ 71.3 µM)
- MIC50 [5]: 0.25 µg/mL (≈ 0.557 µM)
- MIC90 [5]: 0.5 µg/mL (≈ 1.11 µM)
- MIC90 [6]: 0.5 µg/mL (≈ 1.11 µM)
- MIC50 [7]: 0.12 µg/mL (≈ 0.268 µM)
- MIC90 [7]: 0.5 µg/mL (≈ 1.11 µM)
- MIC50 [44]: 0.06 µg/mL (≈ 0.134 µM)
- MIC90 [44]: 0.06 µg/mL (≈ 0.134 µM)
- MIC50 [10]: 0.5 µg/mL (≈ 1.11 µM)
- MIC90 [10]: 0.5 µg/mL (≈ 1.11 µM)
- MIC50 ([45]; read-out: Francisella tularensis MIC50 (μg/mL)): 0.12 µg/mL (≈ 0.268 µM)
- MIC90 ([45]; read-out: Francisella tularensis MIC90 (μg/mL)): 0.5 µg/mL (≈ 1.11 µM)
- MIC [14]: 32 µg/mL (≈ 71.3 µM)
- MIC50 [15]: 0.5 µg/mL (≈ 1.11 µM)
- MIC90 [15]: 1 µg/mL (≈ 2.23 µM)
- MIC50 [46]: > 64 µg/mL
- MIC50 [47]: 16 µg/mL (≈ 35.7 µM)
- MIC90 [47]: 64 µg/mL (≈ 143 µM)
- MIC50 ([48]; read-out: Burkholderia mallei MIC50 (μg/mL)): 8 µg/mL (≈ 17.8 µM)
- MIC90 ([48]; read-out: Burkholderia mallei MIC90 (μg/mL)): ≥ 64 µg/mL
- MIC [17]: 8 to 16 µg/mL (≈ 17.8 to 35.7 µM)
- MIC50 ([49]; read-out: Burkholderia pseudomallei MIC50 (μg/mL)): 32 µg/mL (≈ 71.3 µM)
- MIC90 ([49]; read-out: Burkholderia pseudomallei MIC90 (μg/mL)): 32 µg/mL (≈ 71.3 µM)
- MIC50 [19]: 0.12 µg/mL (≈ 0.268 µM)
- MIC90 [19]: 0.25 µg/mL (≈ 0.557 µM)
- MIC50 [50]: 0.25 µg/mL (≈ 0.557 µM)
- MIC90 [50]: 0.5 µg/mL (≈ 1.11 µM)
- MIC [21]: 1 to 2 µg/mL (≈ 2.23 to 4.46 µM)
- MIC50 [22]: 2 µg/mL (≈ 4.46 µM)
- MIC90 [22]: 4 µg/mL (≈ 8.92 µM)
- MIC50 [24]: 0.5 µg/mL (≈ 1.11 µM)
- MIC90 [24]: 1 µg/mL (≈ 2.23 µM)

Compound: NXL-101
- QT-prolongation in clinical studies [51]: withdrawn from clinical studies as a result of QT-prolongation
